We go through one compound from ChEMBL document CHEMBL5137083 (J Med Chem, 2022).

Common to all, as to design: species or system Cell membrane
The target of assay [1] is T1, Melatonin receptor type 1A (Homo sapiens, UniProt P48039). The assay can be described thus: Displacement of 2-[125I]iodomelatonin from human melatonin MT1 receptor stably expressing in human HEK293 cell membranes under dark condition by radioligand based competition binding assay.
Assay [2] deals with T1, Melatonin receptor type 1A. The assay can be described thus: Displacement of 2-[125I]iodomelatonin from human melatonin MT1 receptor stably expressing in human HEK293 cell membranes in presence of light-activated compounds by radioligand based competition binding assay.
For assay [3], the target named is T2, Melatonin receptor type 1B (Homo sapiens, UniProt P49286).
T2 sequence (P49286 whole entry): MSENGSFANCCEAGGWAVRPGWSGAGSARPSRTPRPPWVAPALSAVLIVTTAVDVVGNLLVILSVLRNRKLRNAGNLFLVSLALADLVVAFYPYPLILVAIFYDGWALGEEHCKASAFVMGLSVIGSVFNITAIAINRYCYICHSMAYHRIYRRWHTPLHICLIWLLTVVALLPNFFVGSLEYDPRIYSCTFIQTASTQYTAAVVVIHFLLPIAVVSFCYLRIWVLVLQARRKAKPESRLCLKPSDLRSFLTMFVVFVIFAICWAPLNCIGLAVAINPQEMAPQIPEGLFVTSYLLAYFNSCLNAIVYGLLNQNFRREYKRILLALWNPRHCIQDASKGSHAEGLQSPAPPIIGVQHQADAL
The assay can be described thus: Displacement of 2-[125I]iodomelatonin from human melatonin MT2 receptor stably expressing in human HEK293 cell membranes under dark condition by radioligand based competition binding assay.

For assay [4], the target named is T2, Melatonin receptor type 1B. The assay can be described thus: Displacement of 2-[125I]iodomelatonin from human melatonin MT2 receptor stably expressing in human HEK293 cell membranes in presence of light-activated compounds by radioligand based competition binding assay.

T1 sequence (P48039 whole entry): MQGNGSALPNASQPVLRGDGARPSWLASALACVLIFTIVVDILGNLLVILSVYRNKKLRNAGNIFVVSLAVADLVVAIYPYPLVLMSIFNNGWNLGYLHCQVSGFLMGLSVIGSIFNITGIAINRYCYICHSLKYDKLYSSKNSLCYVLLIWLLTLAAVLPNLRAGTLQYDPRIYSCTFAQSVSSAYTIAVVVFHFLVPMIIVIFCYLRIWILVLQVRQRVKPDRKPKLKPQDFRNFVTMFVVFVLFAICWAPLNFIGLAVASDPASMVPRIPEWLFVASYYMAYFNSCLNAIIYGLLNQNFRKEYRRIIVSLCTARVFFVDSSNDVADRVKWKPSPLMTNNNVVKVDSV

One may read the Ki as the equilibrium dissociation constant of an inhibitor or competing ligand from its target. On to `COc1ccc2c(c1)c(CCNC(C)=O)cn2C(=O)OCc1cc(OC)c(OC)cc1[N+](=O)[O-]`, for which the Ki in assay [1] is 51.3 nM; in assay [2], 7.76 nM; in assay [3], 39.8 nM; in assay [4], 6.92 nM.
